These results are taken from patent US8163909B2, “Substituted hydroxyethyl amine compounds as beta-secretase modulators and methods of use” (Amgen Inc., priority 2007, dated 2012).

Read-outs that look alike come from different tables or passages of the source.

The conditions of data set [1]: human, microsomes, 1 μM, pH 7.4.
The conditions of data set [2]: rat, microsomes, 1 μM, pH 7.4.
In data set [3] the target is Beta Secretase enzyme (BACE) (Homo sapiens, UniProt P56817). Description: In vitro enzymatic BACE FRET (fluorescence resonance energy transfer) assay.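 Also: fluorescence read after 1 h with 50 nM quenched peptide substrate spanning the BACE cleavage site, in pH 4.2 acetate buffer containing 10% DMSO and nonionic detergent.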 The format is biochemical.
Data set [4] relates to Aβ40 in conditioned medium of cells stably expressing Amyloid Precursor Protein (APP). Briefly: In vitro BACE cell-based assay (Aβ40 in conditioned medium, sandwich ELISA).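 Also: compounds added as a dilution series, secreted peptide quantified by europium time-resolved fluorescence readout, potency fitted from percent of control versus compound concentration.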 Background: In an ELISA, binding on a coated surface is turned into a signal by an enzyme label.
For data set [5], the target named is CYP3A (Homo sapiens, UniProt P08684). The note with it: read-out: 3A4 IC50; CYP3A4 inhibition.
The nature of data set [6]: Microsomal stability assay, rat liver microsomes.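 Also: rat liver microsomes (0.25 mg/mL) with about 1 µM compound plus 1 mM NADPH, pH 7.4, 37 °C for 30 min, parent left measured by LC-MS/MS against 0 min.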 Background: Liver microsomes are vesicles of endoplasmic reticulum, rich in cytochrome P450 enzymes.
Data set [7] in a line: Microsomal stability assay, human liver microsomes.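 Also: pooled human liver microsomes at 0.25 mg/mL with 1 µM compound and NADPH at 37 °C, pH 7.4, for 30 min, unchanged parent quantified by LC-MS/MS against the 0 min sample.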
Data set [8] deals with CYP2D6 (Homo sapiens, UniProt P10635). Description: CYP2D6 inhibition assay (bufuralol, pooled human liver microsomes).
The test system of data set [9] is Abeta peptide. Briefly: In vivo inhibition of beta-secretase (reduction of Abeta peptide in brain and cerebrospinal fluid).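 Also: abeta peptide quantified by sandwich ELISA with electrochemiluminescence readout in rat brain supernatant or CSF, relative to vehicle-dosed control animals.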 Further details: species or system rat. Particulars: po, orally administered at 30 mg/kg dose, measured after 4 hours.
The target of data set [10] is CYP3A4 (CYP3A) (Homo sapiens, UniProt P08684). Briefly: in vitro. Particulars: microsomes, pH 7.4.
[11] abbreviates: read-out: BACE1 FRET assay (IC50).
Where [12] appears, read: read-out: 2D6 IC50, CYP2D6 inhibition.
The mark [13] stands for this setting: BACE enzyme assay, read-out: BACE1 FRET assay.
[14] abbreviates: Homo sapiens, HEK293, HEK cells, read-out: HEK cell assay.
Where [15] appears, read: 2D6 IC50 (uM), CYP enzyme inhibition.
Where [16] appears, read: BACE enzyme assay IC50, read-out: BACE1 FRET assay.
The mark [17] stands for this setting: Rattus norvegicus, 4 h, rat cerebrospinal fluid, read-out: percent reduction of abeta peptide in the cerebrospinal fluid of the rat.
Where [18] appears, read: Rattus norvegicus, 4 h, rat brain, read-out: percent reduction of abeta peptide in the brain of the rat.

Beta Secretase enzyme (BACE), sequence (P56817 46-501): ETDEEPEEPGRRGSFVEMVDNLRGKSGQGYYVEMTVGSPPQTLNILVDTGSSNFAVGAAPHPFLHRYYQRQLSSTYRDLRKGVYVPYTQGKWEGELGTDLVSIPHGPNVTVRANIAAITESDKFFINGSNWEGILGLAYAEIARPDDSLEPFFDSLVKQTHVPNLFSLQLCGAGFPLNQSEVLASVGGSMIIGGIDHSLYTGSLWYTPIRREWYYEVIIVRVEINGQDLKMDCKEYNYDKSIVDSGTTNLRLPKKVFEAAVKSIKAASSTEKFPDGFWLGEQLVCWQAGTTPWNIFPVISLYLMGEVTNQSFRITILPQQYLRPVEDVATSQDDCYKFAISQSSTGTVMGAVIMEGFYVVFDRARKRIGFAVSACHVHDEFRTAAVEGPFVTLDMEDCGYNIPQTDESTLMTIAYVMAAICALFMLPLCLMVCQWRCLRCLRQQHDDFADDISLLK
CYP2D6, sequence (P10635 whole entry): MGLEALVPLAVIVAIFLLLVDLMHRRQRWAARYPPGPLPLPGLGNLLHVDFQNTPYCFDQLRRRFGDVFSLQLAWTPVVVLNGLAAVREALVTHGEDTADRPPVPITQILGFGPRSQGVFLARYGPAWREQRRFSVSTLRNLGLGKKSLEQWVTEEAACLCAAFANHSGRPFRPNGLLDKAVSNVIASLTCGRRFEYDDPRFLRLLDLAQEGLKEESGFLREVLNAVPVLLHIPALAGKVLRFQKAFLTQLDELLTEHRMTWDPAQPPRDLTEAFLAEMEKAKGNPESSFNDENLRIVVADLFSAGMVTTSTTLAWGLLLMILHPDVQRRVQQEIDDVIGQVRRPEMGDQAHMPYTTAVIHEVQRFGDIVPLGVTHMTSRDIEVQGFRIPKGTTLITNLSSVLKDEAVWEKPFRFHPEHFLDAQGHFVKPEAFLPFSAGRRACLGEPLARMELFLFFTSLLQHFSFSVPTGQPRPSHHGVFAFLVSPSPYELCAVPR
CYP3A4 (CYP3A), sequence (P08684 2-503): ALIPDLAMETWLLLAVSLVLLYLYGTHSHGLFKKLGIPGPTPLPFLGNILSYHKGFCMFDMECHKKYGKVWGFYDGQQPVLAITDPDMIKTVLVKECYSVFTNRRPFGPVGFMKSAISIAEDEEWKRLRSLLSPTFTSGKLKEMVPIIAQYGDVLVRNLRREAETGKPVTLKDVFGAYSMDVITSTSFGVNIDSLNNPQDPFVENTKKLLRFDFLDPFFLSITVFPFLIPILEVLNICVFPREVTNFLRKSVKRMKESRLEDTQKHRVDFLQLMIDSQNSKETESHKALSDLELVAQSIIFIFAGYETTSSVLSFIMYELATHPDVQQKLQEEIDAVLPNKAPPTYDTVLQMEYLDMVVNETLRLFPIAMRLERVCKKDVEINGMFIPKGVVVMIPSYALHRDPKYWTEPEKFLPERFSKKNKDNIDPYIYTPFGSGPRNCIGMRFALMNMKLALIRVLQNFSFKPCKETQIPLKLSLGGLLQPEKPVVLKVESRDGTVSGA
CYP3A, sequence (P08684 2-503): as above

`COCC(=O)N[C@@H](Cc1cccc(-c2nccs2)c1)[C@H](O)CN[C@H]1C[C@@]2(CCOC2)Oc2ncc(CC(C)(C)C)cc21` [compound 814, N-((1S,2R)-3-(((3S,4′S)-6′-(2,2-dimethylpropyl)-3′,4,4′,5-tetrahydrospiro[furan-3,2′-pyrano[2,3-b]pyridin]-4′-yl)amino)-2-hydroxy-1-(3-(1,3-thiazol-2-yl)benzyl)propyl)-2-methoxyacetamide]: the “HLM” value in data set [1] worked out at 40 µL/min/mg. In addition, in [2], the “RLM” value stood at 112 µL/min/mg.

On to `CC(=O)N[C@@H](Cc1cc(F)cc(-c2nccs2)c1)[C@H](O)CN[C@H]1CC2(CCC2)Oc2ncc(CC(C)(C)C)cc21` [Example 435, N-((2S,3R)-4-((S)-2,2-spirocyclobutyl-6-neopentyl-3,4-dihydro-2H-pyrano[2,3-b]pyridin-4-ylamino)-1-(3-fluoro-5-(thiazol-2-yl)phenyl)-3-hydroxybutan-2-yl)acetamide], for which the IC50 was found to be 0.006 µM in data set [3] (setting [11]); 0.039 µM in data set [4] (HEK cells, read-out: HEK cell assay (IC50)); 1400 nM in data set [5]; 0.3 µM in data set [8] (setting [12]). This compound also came in with an RLM in [6] (rat liver microsomes) of 197 µL/min/mg. Moreover, the HLM in [7] (human liver microsomes) turned out to be 125 µL/min/mg.

For the compound `COCC(=O)N[C@@H](Cc1ccc(F)cc1)[C@H](O)CN[C@H]1CC2(CCC2)Oc2c1cc(CC(C)(C)C)nc2-c1c[nH]cn1` [Example 529], the IC50 amounted to 0.023 µM in data set [3] (setting [13]), 0.012 µM in data set [4] (setting [14]), 100 nM in data set [10] and 0.7 µM in [8] (setting [15]). In addition, the inhibition in vivo at 30 mg/kg in data set [9] (rat cerebrospinal fluid, read-out: percent reduction of abeta peptide in the cerebrospinal fluid of the rat) fell in the range of 10 to 80%. For the same compound, the “HLM” value in data set [1] was 37 µL/min/mg. In data set [2], the “RLM” value amounted to 40 µL/min/mg.

For `C#Cc1cccc(C[C@H](NC(=O)COC)[C@H](O)CN[C@H]2C[C@]3(CCOC3)Oc3ncc(CC(C)(C)C)cc32)c1` [compound 868], the HLM in data set [1] is 14 µL/min/mg. For the same compound, the RLM in [2] worked out at 86 µL/min/mg.

For `COCC(=O)N[C@@H](Cc1cccc(-c2nccs2)c1)[C@H](O)CN[C@H]1C[C@]2(CCOC2)Oc2ncc(CC(C)(C)C)cc21` [compound 845], in data set [1], the “HLM” value came to 64 µL/min/mg. Further, the “RLM” value in [2] worked out at 152 µL/min/mg.

As for `COCC(=O)N[C@@H](Cc1cccc(-c2nccs2)c1)[C@H](O)CN[C@H]1C[C@@]2(CCOC2)Oc2ncc(CC(C)(C)C)cc21` [compound 823, N-((1S,2R)-3-(((3S,4′S)-6′-(2,2-dimethylpropyl)-3′,4,4′,5-tetrahydrospiro[furan-3,2′-pyrano[2,3-b]pyridin]-4′-yl)amino)-2-hydroxy-1-(3-(1,3-thiazol-2-yl)benzyl)propyl)-2-methoxyacetamide], the “HLM” value in data set [1] was determined as 57 µL/min/mg. The “RLM” value in data set [2] came to 171 µL/min/mg.

Turning to `C#Cc1cccc(C[C@H](NC(=O)COC)[C@H](O)CN[C@H]2C[C@]3(CCOC3)Oc3ncc(CC(C)(C)C)cc32)c1` [compound 824], the “HLM” value in data set [1] is 21 µL/min/mg. Also, the “RLM” value in data set [2] came to 28 µL/min/mg.

Take `COCC(=O)N[C@@H](Cc1cccc(-c2nccs2)c1)[C@H](O)CN[C@H]1C[C@]2(CCOC2)Oc2ncc(CC(C)(C)C)cc21` [compound 822]: the “HLM” value in [1] was found to be 54 µL/min/mg. Also, the “RLM” value in [2] was found to be 101 µL/min/mg.

With `COCC(=O)N[C@@H](Cc1cccc(-c2nccs2)c1)[C@H](O)CN[C@H]1C[C@@]2(CCOC2)Oc2ncc(CC(C)(C)C)cc21` [compound 846, N-((1S,2R)-3-(((3S,4′S)-6′-(2,2-dimethylpropyl)-3′,4,4′,5-tetrahydrospiro[furan-3,2′-pyrano[2,3-b]pyridin]-4′-yl)amino)-2-hydroxy-1-(3-(1,3-thiazol-2-yl)benzyl)propyl)-2-methoxyacetamide], the “HLM” value in data set [1] came to 82 µL/min/mg. Also, the “RLM” value in data set [2] was 128 µL/min/mg.

Consider `COCC(=O)N[C@@H](Cc1cc(F)cc(F)c1)[C@H](O)CN[C@H]1CC2(CCC2)Oc2c1cc([C@H]1CC1(C)C)nc2-c1ccncc1` [compound 678], for which the “HLM” value in data set [1] is 23 µL/min/mg. In data set [2], the “RLM” value came out at 79 µL/min/mg.

As to `CC(=O)N[C@@H](Cc1ccc(F)c(-c2cscn2)c1)[C@H](O)CN[C@H]1CC2(CCC2)Oc2ccc(CC(C)(C)C)cc21` [Example 436, N-((2S,3R)-4-((S)-2,2-spirocyclobutyl-6-neopentyl-3,4-dihydro-2H-chromen-4-ylamino)-1-(4-fluoro-3-(thiazol-4-yl)phenyl)-3-hydroxybutan-2-yl)acetamide], the IC50 in data set [3] (setting [16]) stood at 0.005 µM; in data set [4] (HEK cell-based assay IC50, read-out: HEK cell assay), 0.024 µM; in data set [5] it was 200 nM; in data set [8] (setting [12]) it was 2.2 µM. For the same compound, the “RLM” value in data set [6] (rat liver microsomes) was 78 µL/min/mg. In addition, the “HLM” value in data set [7] (human liver microsomes) stood at 135 µL/min/mg.

As to `CO[C@H](C)C(=O)N[C@@H](Cc1cccc(F)c1)[C@H](O)CN[C@H]1CC2(CCC2)Oc2c1cc(CC(C)C)cc2-n1ccnc1` [Example 521], the IC50 in data set [3] (setting [13]) was 0.019 µM; in data set [4] (setting [14]), 0.015 µM; in data set [10], 100 nM; in data set [8] (setting [15]) it was 1.9 µM. The inhibition in vivo at 30 mg/kg in data set [9] (setting [17]) was 10 to 80%. Moreover, in data set [6] (rat liver microsomal data), the “RLM” value worked out at 142 µL/min/mg. Further, the “HLM” value in [7] (human liver microsomal data) came to 27 µL/min/mg.

On to `COCC(=O)N[C@@H](Cc1ccccc1)[C@H](O)CN[C@H]1CC2(CCC2)Oc2c1cc(CC(C)(C)C)nc2-c1ccncc1` [Example 541], for which the IC50 in data set [3] (setting [13]) is 0.02 µM; in data set [4] (setting [14]), 0.055 µM; in data set [10] it was 100 nM; in data set [8] (setting [15]), 2.1 µM. Moreover, the inhibition in vivo at 30 mg/kg in data set [9] (setting [17]) lay in the range of 10 to 80%. Besides, the “RLM” value in data set [6] (rat liver microsomal data) is 192 µL/min/mg. The “HLM” value in data set [7] (human liver microsomal data) worked out at 31 µL/min/mg.

With `COCC(=O)N[C@@H](Cc1ccc(F)cc1)[C@H](O)CN[C@H]1CC2(CCC2)Oc2c1cc(CC(C)C)cc2-n1ccnc1` [Example 478], the IC50 in data set [3] (Table 2, read-out: BACE1 FRET assay) was 0.056 µM; in data set [4] (Homo sapiens, HEK293, Table 2, HEK cells, read-out: HEK cell assay), 0.068 µM; in data set [10], 100 nM; in data set [8] (2D6 IC50, CYP enzyme inhibition) it was 2.2 µM. Moreover, the inhibition in vivo at 30 mg/kg in [9] (setting [17]) fell in the range of 10 to 80%. In data set [6] (rat liver microsomal data), this compound showed an RLM of 157 µL/min/mg. Besides, in data set [7] (human liver microsomal data), the HLM was found to be 24 µL/min/mg.

`COCC(=O)N[C@@H](Cc1cccc(F)c1)[C@H](O)CN[C@H]1CC2(CCC2)Oc2c1cc(CC(C)(C)C)nc2-n1ccnc1` [Example 504]: the IC50 worked out at 0.014 µM in [3] (setting [13]), 0.028 µM in data set [4] (setting [14]), 100 nM in data set [10] and 2.3 µM in [8] (setting [15]). Moreover, in data set [9] (setting [17]), the inhibition in vivo at 30 mg/kg was in the range of 10 to 80%. Besides, in data set [6] (rat liver microsomal data), the “RLM” value is 87 µL/min/mg. The “HLM” value in data set [7] (human liver microsomal data) was determined as 16 µL/min/mg.

For `COCC(=O)N[C@@H](Cc1ccc(F)c(-c2nccs2)c1)[C@H](O)CN[C@H]1CC2(CCC2)Oc2ncc(CC(C)(C)F)cc21` [Example 743], the IC50 is 0.016 µM in [3] (setting [16]); 0.037 µM in data set [4] (Homo sapiens, HEK293, HEK cell-based assay IC50, read-out: HEK cell assay); not above 30 nM in data set [10]; 0.6 µM in [8] (2D6 IC50 (uM), CYP2D6 inhibition). Also, the results for the inhibition in vivo at 30 mg/kg in [9] (setting [18]) and in data set [9] (setting [17]) were not below 30% and 10 to 80%, respectively. For the same compound, the “RLM” value in [6] (rat liver microsomes) came out at 31 µL/min/mg. Moreover, the “HLM” value in data set [7] (human liver microsomes) turned out to be 22 µL/min/mg.

In the case of `CC(=O)N[C@@H](Cc1cccc(-c2nccs2)c1)[C@H](O)CN[C@H]1CC2(CCC2)Oc2ccc(CC(C)(C)C)cc21` [Example 641, N-((1S,2R)-3-(((4S)-6-(2,2-dimethylpropyl)-3,4-dihydrospiro[chromene-2,1′-cyclobutan]-4-yl)amino)-2-hydroxy-1-(3-(1,3-thiazol-2-yl)benzyl)propyl)acetamide], the IC50 in data set [3] (setting [11]) is 0.006 µM; in data set [4] (Homo sapiens, HEK293, HEK cells, read-out: HEK cell assay (IC50)) it was 0.029 µM; in data set [10], 700 nM; in [8] (2D6 IC50, CYP2D6 inhibition) it was 0.3 µM. For the same compound, the inhibition in vivo at 30 mg/kg in data set [9] (setting [17]) fell in the range of 10 to 80%. The compound further showed an RLM in data set [6] (rat liver microsomes) of 165 µL/min/mg. Also, the HLM in data set [7] (human liver microsomes) turned out to be 102 µL/min/mg.

For the compound `COCC(=O)N[C@@H](Cc1cc(F)cc(-c2nccs2)c1)[C@H](O)CN[C@H]1CC2(CCC2)Oc2cnc(CC(C)(C)C)cc21` [Example 782, N-((1S,2R)-3-(((4′S)-6′-(2,2-dimethylpropyl)-3′,4′-dihydrospiro[cyclobutane-1,2′-pyrano[2,3-c]pyridin]-4′-yl)amino)-1-(3-fluoro-5-(1,3-thiazol-2-yl)benzyl)-2-hydroxypropyl)-2-methoxyacetamide], the IC50 in data set [3] (BACE enzyme assay, IC50's in uM, read-out: BACE1 FRET assay) is 0.015 µM; in data set [4] (Homo sapiens, HEK293, HEK cell-based assay, IC50's in uM, read-out: HEK cell assay), 0.036 µM; in data set [10], 300 nM; in data set [8] (setting [15]), 0.4 µM. For the same compound, the figures for the inhibition in vivo at 30 mg/kg in data set [9] (setting [18]) and in data set [9] (setting [17]) were 5 to 80% and 10 to 80%, respectively. Also, in data set [6] (rat liver microsomal data), the “RLM” value was determined as 130 µL/min/mg. Further, in [7] (human liver microsomal data), the “HLM” value amounted to 94 µL/min/mg.
